Non-standard residues stand in square brackets, D forms with d. hArg = N=C(N)NCCCC[C@H](N)C(=O)O; Cit = NC(=O)NCCC[C@H](N)C(=O)O; Orn = NCCC[C@H](N)C(=O)O
Tested on: murine E^k MHC class II allele
Test: antigenic peptide prepulse assay, E^k allele (fixed APC prepulsed with PGCC81-104)
Assay type: cell-based
Protocol: In a second type of assay, the “peptide prepulse assay”, the antigenic peptide is incubated with paraformaldehyde-fixed APC for 6 h. The APC are washed and incubated for 24 h with the AE101 series homolog and the T cell hybridoma specific for the antigenic peptide. After that incubation, an aliquot of the culture supernatant is transferred to a second culture to measure the relative degree of T hybridoma stimulation, as reflected in the effect of released interleukins on the growth of an interleukin-dependent, indicator cell line, as described above.
The two above described assays measure different aspects of the molecular mechanism of the AE101 series of peptides. In the “simultaneous assay”, AE101 series peptides are thought to induce the release of endogenously bound peptides and to permit the binding of the second, specific antigenic peptide which is relatively abundant in the culture fluid. The AE101 series peptides enhance antigenic peptide-specific T cell responses in simultaneous assays. In the “peptide prepulse” assay, the specific antigenic peptide becomes bound to MHC class II molecules on the surface of the fixed APC during the 6 h prepulse incubation. The effect of the AE101 series homologs is then thought to release that antigenic peptide, resulting in an apparent suppression of the immune response.
The AE101 series peptides are thought to contact the MHC class II molecules at a discrete site outside the antigenic peptide-binding groove. AE101 peptide binding to this “Ii-KEY” site is thought to induce a conformational change in the MHC class II molecules accelerating the dissociation of previously bound antigenic peptide. […] The AE101 series peptides thus inhibit antigenic peptide-specific T cell responses in the “peptide prepulse” assays.
Antigenic peptide-specific T cell activation was measured by the following procedure. Mitomycin C-treated A20 cells (A^dE^d) or CH27 cells APC (A^kE^k) were generated by incubating 5×10^6 cells/mL for 20 min at 37° C. with 0.025 mg/mL of mitomycin C (Sigma) in Dulbecco's Modified Eaglel's Medium (DMEM)/10 mM N-2(hydroxyethylpiperazine-N″[2-ethanesulfonic acid] (HEPES), followed by two washes with four volumes of DMEM-5% fetal calf serum (FCS), 10 mM HEPES. Fixed APC were generated by treating 1×10^6 cells/mL for 5 min with 0.5% paraformaldehyde in PBS (pH 7.2), followed by two washes with four volumes of DMEM-10% FCS, 10 mM HEPES. T cell hybridomas were irradiated 2200 rads before each assay.
The “peptide prepulse assay” was carried out under essentially the same conditions as described for the “simultaneous assay” with the following modifications. Fixed APC were first incubated for 6 h at 1×10^6 cells/mL in complete DMEM-5% FCS in 24-well microculture plates (1 mL/well) with antigenic peptide, followed by four washes with 10 volumes of DMEM-5% FCS. The cells were then exposed to varying concentrations of AE101 series peptide (64 μM, 16 μM, 4 μM, and 1 μM) for 24 h in the presence of the T cell hybridoma specific to the antigenic peptide. Interleukin release from these cultures was measured by proliferation of HT-2 cells to interleukins in supernatants transferred from the primary culture. Generally, a single dose of 64 μM of each AE101 series peptide was used. The baseline T cell response was measured by culturing T hybridoma cells with the antigenic peptide-prepulsed APC in the absence of AE101 series peptides.
Table 19: Activities of C-terminal truncation analogs of AE101 in an antigenic peptide prepulse assay. […] Paraformaldehyde-treated APC (fixed APC) expressing MHC class II molecules were incubated with antigenic peptide for 6 h (HEL106-116 for E^d and PGCC81-104 for E^k). After this incubation, the prepulsed APC were washed and cultured with T hybridoma cells and AE101 series peptides. The antigenic peptide concentration during the prepulse was 12 μM for Ed and 20 μM for E^k. The AE101 series peptide concentrations were 64 μM for E^d and 16 μM for E^k. […]

[1] = Table 20, AE peptide 16 μM, prepulse 20 μM antigenic peptide, supernatant 1:2

Ac-YRMKLPKSAK-NH2 [AE109]
Activity in antigenic peptide prepulse assay, E^k (baseline without AE peptide = 1.00) (Table 19, AE peptide 16 μM, prepulse 20 μM PGCC81-104, supernatant 1:2): 0.07 | Activity in antigenic peptide prepulse assay, E^k (baseline = 1.00) [1]: 0.28 | Activity in antigenic peptide prepulse assay, E^k (baseline = 1.00) (Table 21, AE peptide 16 μM, prepulse 20 μM antigenic peptide, supernatant 1:2): 0.07

Ac-Y[Cit]MKLPKSAK-NH2 [AE131]
Activity in antigenic peptide prepulse assay, E^k (baseline = 1.00) [1]: 0.71 | Activity in antigenic peptide prepulse assay, E^k (baseline = 1.00) (Table 25, AE peptide 64 μM, prepulse 2.5 μM antigenic peptide, supernatant 1:10): 0.98

Ac-Y[Orn]MKLPKSAK-NH2 [AE130]
Activity in antigenic peptide prepulse assay, E^k (baseline = 1.00) [1]: 0.66

Ac-Y[hArg]MKLPKSAK-NH2 [AE132]
Activity in antigenic peptide prepulse assay, E^k (baseline = 1.00) [1]: 0.1 | Activity in antigenic peptide prepulse assay, E^k (baseline = 1.0) (Table 26, AE peptide 64 μM, prepulse 1.25 μM antigenic peptide, supernatant 1:8): 0.89

Ac-l RMKLPK-NH2 [AE160]
Activity in antigenic peptide prepulse assay, E^k (baseline = 1.00) (Table 22, AE peptide 16 μM, prepulse 20 μM antigenic peptide, supernatant 1:2): 0.47

YRMKLPKSAKPVSQMR [AE101]
Activity in antigenic peptide prepulse assay, E^k (baseline = 1.00) [1]: 0.89

Source: patent US6835382B2, “Ii peptide therapeutics to enhance antigen presentation” (University of Massachusetts, priority 1996, dated 2004)
